Test results as given in US20160199500A1, “COMPOSITIONS COMPRISING VITAMIN B12 AND INTRINSIC FACTOR AND METHODS OF USE THEREOF” (Syracuse University, priority 2013, published 2016).

Tests used:
[1] = target: cubilin (CUBN) (Homo sapiens, UniProt O60494+P27352); settings: binds CUB domains 5-8, Ca2+ dependent; read-out: Kd of IF-B12 for cubilin; cited from earlier work
[2] = test system: BeWo cells (cubilin receptor); experiment: Uptake and internalization in BeWo cells by confocal microscopy; assay type: cell-based; settings: conjugates incubated with IF
[3] = pre injection of 50 mg two minutes before an 125I-labeled conjugate, mice; cited from earlier work

cubilin (CUBN), sequence (O60494 36-3623, species assumed): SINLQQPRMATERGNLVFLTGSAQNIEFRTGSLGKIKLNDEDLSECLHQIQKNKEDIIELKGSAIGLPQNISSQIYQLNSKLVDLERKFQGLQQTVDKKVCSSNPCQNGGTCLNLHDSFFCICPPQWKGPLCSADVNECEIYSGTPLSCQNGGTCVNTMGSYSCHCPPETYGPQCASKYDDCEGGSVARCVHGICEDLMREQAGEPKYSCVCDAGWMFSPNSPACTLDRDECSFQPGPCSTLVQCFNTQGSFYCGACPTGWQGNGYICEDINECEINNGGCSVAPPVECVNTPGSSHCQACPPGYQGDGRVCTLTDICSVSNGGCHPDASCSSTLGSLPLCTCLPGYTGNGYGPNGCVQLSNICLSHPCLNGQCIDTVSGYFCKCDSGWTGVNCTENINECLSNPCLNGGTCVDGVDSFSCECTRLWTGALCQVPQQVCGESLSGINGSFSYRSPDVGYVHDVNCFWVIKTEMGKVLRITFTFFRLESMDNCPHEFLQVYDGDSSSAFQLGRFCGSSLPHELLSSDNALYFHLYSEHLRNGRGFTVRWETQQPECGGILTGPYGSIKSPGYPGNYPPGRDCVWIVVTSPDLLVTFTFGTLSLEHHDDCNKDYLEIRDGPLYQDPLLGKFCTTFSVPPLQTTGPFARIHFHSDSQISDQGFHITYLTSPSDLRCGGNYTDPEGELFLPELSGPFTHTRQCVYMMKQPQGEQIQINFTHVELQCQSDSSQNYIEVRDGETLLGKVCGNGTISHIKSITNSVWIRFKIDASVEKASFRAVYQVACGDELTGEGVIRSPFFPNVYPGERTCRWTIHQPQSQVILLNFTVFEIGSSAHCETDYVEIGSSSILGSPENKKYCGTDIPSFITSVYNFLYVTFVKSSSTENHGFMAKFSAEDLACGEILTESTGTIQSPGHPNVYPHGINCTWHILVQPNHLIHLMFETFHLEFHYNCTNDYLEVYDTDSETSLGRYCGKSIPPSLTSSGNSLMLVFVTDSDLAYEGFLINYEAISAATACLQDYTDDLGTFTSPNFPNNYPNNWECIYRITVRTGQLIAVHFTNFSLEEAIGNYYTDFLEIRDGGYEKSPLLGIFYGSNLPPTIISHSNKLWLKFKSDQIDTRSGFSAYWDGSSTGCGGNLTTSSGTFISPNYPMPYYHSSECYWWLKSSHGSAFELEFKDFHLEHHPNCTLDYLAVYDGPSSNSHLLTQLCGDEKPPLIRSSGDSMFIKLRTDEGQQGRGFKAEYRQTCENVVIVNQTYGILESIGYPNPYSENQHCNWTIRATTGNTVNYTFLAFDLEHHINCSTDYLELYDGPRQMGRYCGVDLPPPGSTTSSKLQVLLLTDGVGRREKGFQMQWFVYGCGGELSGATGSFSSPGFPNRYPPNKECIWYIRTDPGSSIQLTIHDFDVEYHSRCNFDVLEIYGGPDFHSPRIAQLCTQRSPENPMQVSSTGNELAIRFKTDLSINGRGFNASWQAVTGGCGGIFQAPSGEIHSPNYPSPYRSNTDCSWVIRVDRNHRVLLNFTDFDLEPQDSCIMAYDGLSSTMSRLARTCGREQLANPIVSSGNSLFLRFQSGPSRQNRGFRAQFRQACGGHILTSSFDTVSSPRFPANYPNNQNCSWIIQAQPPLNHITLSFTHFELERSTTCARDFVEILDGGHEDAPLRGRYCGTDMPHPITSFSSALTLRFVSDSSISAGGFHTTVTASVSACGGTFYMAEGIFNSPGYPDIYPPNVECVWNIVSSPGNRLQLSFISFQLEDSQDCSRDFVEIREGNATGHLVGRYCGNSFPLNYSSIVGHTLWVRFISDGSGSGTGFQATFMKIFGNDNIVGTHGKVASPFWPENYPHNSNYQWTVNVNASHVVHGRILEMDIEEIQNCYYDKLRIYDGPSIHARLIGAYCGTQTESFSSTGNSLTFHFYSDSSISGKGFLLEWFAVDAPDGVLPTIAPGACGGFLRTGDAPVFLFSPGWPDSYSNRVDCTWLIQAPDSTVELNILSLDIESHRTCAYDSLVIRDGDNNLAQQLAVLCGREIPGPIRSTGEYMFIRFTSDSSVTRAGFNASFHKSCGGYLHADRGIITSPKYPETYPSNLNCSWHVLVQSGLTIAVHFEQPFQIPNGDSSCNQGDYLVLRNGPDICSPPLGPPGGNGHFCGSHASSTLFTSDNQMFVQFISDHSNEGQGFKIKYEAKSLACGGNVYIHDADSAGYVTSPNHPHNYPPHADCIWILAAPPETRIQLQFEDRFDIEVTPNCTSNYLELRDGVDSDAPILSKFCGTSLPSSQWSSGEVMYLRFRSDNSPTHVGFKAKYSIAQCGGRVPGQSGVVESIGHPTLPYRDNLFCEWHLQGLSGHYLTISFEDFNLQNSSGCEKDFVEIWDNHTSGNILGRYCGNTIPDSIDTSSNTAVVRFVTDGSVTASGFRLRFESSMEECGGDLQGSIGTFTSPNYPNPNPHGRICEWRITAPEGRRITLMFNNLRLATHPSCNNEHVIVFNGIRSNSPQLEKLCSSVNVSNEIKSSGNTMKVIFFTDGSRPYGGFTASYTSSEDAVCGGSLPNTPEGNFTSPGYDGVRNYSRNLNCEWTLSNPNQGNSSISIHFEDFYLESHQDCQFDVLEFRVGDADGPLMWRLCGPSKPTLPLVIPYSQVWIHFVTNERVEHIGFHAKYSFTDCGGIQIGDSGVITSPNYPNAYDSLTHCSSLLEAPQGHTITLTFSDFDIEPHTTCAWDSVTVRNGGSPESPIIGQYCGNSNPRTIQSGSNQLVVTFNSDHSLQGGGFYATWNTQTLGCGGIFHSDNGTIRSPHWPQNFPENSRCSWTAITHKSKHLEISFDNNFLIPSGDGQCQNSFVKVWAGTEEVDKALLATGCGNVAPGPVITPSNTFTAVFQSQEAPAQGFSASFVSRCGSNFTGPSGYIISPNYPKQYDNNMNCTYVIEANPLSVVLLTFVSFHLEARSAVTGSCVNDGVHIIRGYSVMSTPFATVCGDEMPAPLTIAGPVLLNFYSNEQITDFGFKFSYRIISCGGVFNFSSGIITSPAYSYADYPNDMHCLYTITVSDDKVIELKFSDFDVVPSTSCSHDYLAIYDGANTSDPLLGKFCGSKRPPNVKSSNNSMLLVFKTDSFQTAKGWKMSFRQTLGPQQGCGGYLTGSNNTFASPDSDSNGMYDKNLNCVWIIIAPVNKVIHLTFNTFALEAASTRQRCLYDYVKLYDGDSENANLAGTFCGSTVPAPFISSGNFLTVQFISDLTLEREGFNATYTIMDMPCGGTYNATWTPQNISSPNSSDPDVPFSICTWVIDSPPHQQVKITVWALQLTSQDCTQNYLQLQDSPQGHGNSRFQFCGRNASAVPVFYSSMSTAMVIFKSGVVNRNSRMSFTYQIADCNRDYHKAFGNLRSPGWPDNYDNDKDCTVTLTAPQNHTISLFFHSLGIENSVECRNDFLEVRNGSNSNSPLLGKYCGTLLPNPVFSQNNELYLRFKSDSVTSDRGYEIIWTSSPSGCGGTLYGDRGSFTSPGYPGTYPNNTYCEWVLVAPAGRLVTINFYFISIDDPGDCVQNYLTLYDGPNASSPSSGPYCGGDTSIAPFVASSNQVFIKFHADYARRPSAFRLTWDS
cubilin (CUBN), sequence (P27352 19-417, species assumed): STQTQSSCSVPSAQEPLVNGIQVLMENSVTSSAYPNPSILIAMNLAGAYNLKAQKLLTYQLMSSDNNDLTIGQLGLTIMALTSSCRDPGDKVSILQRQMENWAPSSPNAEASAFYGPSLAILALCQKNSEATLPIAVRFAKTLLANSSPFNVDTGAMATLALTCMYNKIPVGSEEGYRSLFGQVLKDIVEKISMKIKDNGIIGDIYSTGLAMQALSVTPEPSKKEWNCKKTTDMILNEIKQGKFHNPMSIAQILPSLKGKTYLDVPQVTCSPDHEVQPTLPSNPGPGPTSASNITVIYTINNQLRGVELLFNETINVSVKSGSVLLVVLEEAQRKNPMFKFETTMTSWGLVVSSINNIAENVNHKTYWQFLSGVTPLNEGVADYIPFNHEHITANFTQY

## IF-B12: complex of intrinsic factor, a 50 kDa protein, bound to B12
[1]
  Kd: ~5 nM

## IF405: intrinsic factor tagged with Alexa Fluor 405
[2]
  binding, uptake or internalization in BeWo cells: shows uptake

## NCCCC[C@H](N)C(=O)O [1-lysine, L-lysine]
[3]
  decrease of kidney uptake: approximately 95%
